US20080027003A1, “Peptides Useful for Treating Gnrh Associated Diseases” (CurePeptide Ltd., priority 2004, published 2008)
Like-named read-outs stand apart in the source and are kept apart here. Non-standard residues stand in square brackets, D forms with d. Residues, ends and D or L forms follow the SMILES beside them. *: point of attachment. Palmitoyl = CCCCCCCCCCCCCCCC(=O)*

Key:
[1] = test system: female athymic nude mice NCr-nu; assay: Total tolerated dosage (TTD), single injection; type: in vivo; settings: observed 14 days
Protocol: The total tolerated dosage of peptide by mice administered with a single injection was tested.
The test compounds were administered to 10 female athymic nude mice NCr-nu (Charles River Laboratories, Wilmington, Mass.) as a single injection at the following dosages and routes:
Peptide X was injected intra-peritonealy (IP) at 400, 200, and 100 mg/kg.
Peptide NLS-E was tested intra-venously (IV) at 400, 200, 100, 50 and 25 mg/kg
Different injection volumes of a stock solution at a concentration of 20 mg/ml were used to administer the desired dosages (injection volumes of 0.05, 0.1, and 0.2 ml/10 g body, respectively) The carrier was water for injection at pH 7. […] Individual body weights were measured twice a week.

[2] = test system: female athymic NCr-nu nude mice; assay: Maximal tolerated dosage (MTD), twice a day for 14 consecutive days; type: in vivo; settings: for mice that died: five mice per group
Protocol: The maximum tolerated dosage (MTD) of the test compounds was tested when administered twice a day for 14 consecutive days.
A total of 50 female athymic NCr-nu nude mice (obtained as mentioned in Example 10a) were used as follows: five groups of mice with five mice per group per compound. Peptides dissolved in water at pH 7 (the vehicle) were evaluated at four dosages (The dosages selected were derived from the results of the TTD experiment, Example 10a):
Peptide X was injected IP at 20 mg/kg/injection for 7 days, followed by IP injections at […] 10, 5, 2.5 mg/kg/injection for 7 days followed by 30, 15 and 7.5 mg/kg, for 14 days respectively.
Peptide NLS-E was tested at 10, 5, 2.5, and 1.25 mg/kg/injection followed by injection at 30, 15, 7.5 and 3.75 mg/kg respectively. Injections were given IV except in the groups treated with 10/30 and 5/15 mg/kg/injection, where injections were switched to IP route on day 10 of treatment.
Additionally, one vehicle-treated control group of five mice per compound was included in the experiment. […] The MTD study was terminated on Day 29.
Individual body weights were measured twice a week.

[3] = test system: HCT-116; type: cell-based, human; settings: 24 h
Protocol: (§1) Hemacolor assay—A comparative study was effected between peptides GnRH—X and NLS-GnRH-E on three adenocarcinoma cell lines: MDA-MB-231 (breast) HCT-116 and Colo-205 (colon), described in Example 5 above. Briefly, cells were plated in 96 well plates and allowed to adhere to the plates. Thereafter, various concentrations of GnRH and NLS-GnRH peptides were incubated with the adhered cells for 24 h. To quantify the extent of damage to the cells by the peptides, the Hemacolor assay was effected as described in Example 5. Viable cells which remained adhered to the 96 plastic plates were fixed and stained. Dye was extracted from the plate by addition of 0.5% SDS in PBS (100 μl) with vigorous mixing. Plates were quantified at 650 nm by spectrophotometer (ELISA reader). Cell viability of ≧95% by Trypan blue exclusion from 400 cells was a prerequisite for each experiment. Note, the color intensity is proportional to the extent of the remaining viability. Data was calculated as EC50, which is defined as the concentration (in μM) of analog that provokes a response half way between the baseline (Bottom=control) and maximum response (Top).

[4] = test system: MDA-MB-231; type: cell-based, human; settings: 24 h
Protocol: as §1

[5] = test system: Colo-205; type: cell-based, human; settings: 24 h
Protocol: as §1

[6] = test system: Colo-205 adenocarcioma cell line; assay: Growth inhibitory effect by Hemacolor assay on Colo-205 (Example 7); type: cell-based, human
Description: Peptides were synthesized as described in Example 6 above.
Table 10 below summarizes the concentration of the various peptides required to obtain 50% viability, or to destroy 50% of the tumor cells, as derived from the hemacolor test (FIGS. 3 and 4a-c). Of note, the higher the concentration of peptide required, the poorer the potency of the analog.

[7] = read-out: Concentration required to obtain 50% viability
[8] = read-out: Concentration [M] × 10^−6 (derived from table 10)

Row | Compound | EC50 [3] [µM] | EC50 [4] [µM] | EC50 [5] [µM] | Activity with respect to NLS-E (%) [6] [%] | EC50 [6, 7] [M] | EC50 [6, 8] [M] | further results
1 | CCCCCCCCCCCCCCCC(=O)N1CCC[C@H]1C(=O)NCC(=O)N[C@H](Cc1ccccc1)C(=O)N1CCC[C@H]1C(=O)N[C@@H](CO)C(=O)N[C@@H](Cc1ccc(O)cc1)C(=O)N[C@H](CCCCN)C(=O)N[C@@H](CC(C)C)C(=O)N[C@@H](CCCNC(=N)N)C(=O)N1CCC[C@H]1C(=O)NCC(N)=O [SEQ ID NO: 2, Palm-Pro-Gly-D-Phe-Pro-Ser-Tyr-D-Lys-Leu-Arg-Pro-Gly-NH2] (Palmitoyl-PG[dF]PSY[dK]LRPG-NH2) | 750 | 400 | 200 | – | – | – | lethality after single injection ([1]; IP, 100 mg/kg): stayed alive; lethality after single injection ([1]; IP, 200 mg/kg): lethal; lethality after single injection ([1]; IP, 400 mg/kg): lethal; mice that died ([2]; 10/30 mg/kg): one; mice that died ([2]; IP, 20/60 mg/kg): Three
2 | CCCCCCCCCCCCCCCC(=O)N[C@H](CCCCNC(=O)[C@@H](NC(=O)[C@H](CCCCN)NC(=O)[C@H](CCCNC(=N)N)NC(=O)[C@H](CCCCN)NC(=O)[C@H](CCCCN)NC(=O)[C@H](CCCCN)NC(=O)[C@@H]1CCCN1)C(C)C)C(=O)N1CCC[C@H]1C(=O)NCC(=O)N[C@H](Cc1ccccc1)C(=O)N1CCC[C@H]1C(=O)N[C@@H](CO)C(=O)N[C@@H](Cc1ccc(O)cc1)C(=O)N[C@H](CCCCN)C(=O)N[C@@H](CC(C)C)C(=O)N[C@@H](CCCNC(=N)N)C(=O)N1CCC[C@H]1C(=O)NCC(N)=O [SEQ ID NO: 33, Palm-D-Lys(H-Pro-Lys-Lys-Lys-Arg-Lys-Val)-Pro-Gly-D-Phe-Pro-Ser-Tyr-D-Lys-Leu-Arg-Pro-Gly-NH2] | 320 | 350 | 68 | – | – | – | lethality after single injection ([1]; IV, 25 mg/kg): stayed alive; lethality after single injection ([1]; IV, 50 mg/kg): stayed alive; lethality after single injection ([1]; IV, 100 mg/kg): lethal; lethality after single injection ([1]; IV, 200 mg/kg): lethal; lethality after single injection ([1]; IV, 400 mg/kg): lethal; mice that died ([2]; IV injected, all dosages): None; comparative toxicity ([2]; repeated dosing in mice): less toxic than peptide X
3 | Palm-D-Lys-Gly-D-Phe-Pro-Ser-Tyr-D-Lys-Leu-Arg-Pro-Gly-NH2 (Palmitoyl-[dK]G[dF]PSY[dK]LRPG-NH2; SMILES CCCCCCCCCCCCCCCC(=O)N[C@H](CCCCN)C(=O)NCC(=O)N[C@H](Cc1ccccc1)C(=O)N1CCC[C@H]1C(=O)N[C@@H](CO)C(=O)N[C@@H](Cc1ccc(O)cc1)C(=O)N[C@H](CCCCN)C(=O)N[C@@H](CC(C)C)C(=O)N[C@@H](CCCNC(=N)N)C(=O)N1CCC[C@H]1C(=O)NCC(N)=O) [SEQ ID NO: 10] | – | – | – | 12.5 | 5e-05 | – | –
4 | Palm-D-Lys-Pro-Gly-D-Phe-Pro-Ser-Tyr-D-Lys-Leu-Arg-Pro-Gly-NH2 (Palmitoyl-[dK]PG[dF]PSY[dK]LRPG-NH2; SMILES CCCCCCCCCCCCCCCC(=O)N[C@H](CCCCN)C(=O)N1CCC[C@H]1C(=O)NCC(=O)N[C@H](Cc1ccccc1)C(=O)N1CCC[C@H]1C(=O)N[C@@H](CO)C(=O)N[C@@H](Cc1ccc(O)cc1)C(=O)N[C@H](CCCCN)C(=O)N[C@@H](CC(C)C)C(=O)N[C@@H](CCCNC(=N)N)C(=O)N1CCC[C@H]1C(=O)NCC(N)=O) [SEQ ID NO: 9] | – | – | – | 16 | 3.5e-05 | 3.5e-05 | Activity with respect to NLS peptide (%) ([6]; relative to the corresponding NLS-conjugated peptide): 16%
5 | Palm-Pro-Gly-D-Phe-Ala-Ser-Tyr-D-Lys-Leu-Arg-Pro-Gly-NH2 (Palmitoyl-PG[dF]ASY[dK]LRPG-NH2; SMILES CCCCCCCCCCCCCCCC(=O)N1CCC[C@H]1C(=O)NCC(=O)N[C@H](Cc1ccccc1)C(=O)N[C@@H](C)C(=O)N[C@@H](CO)C(=O)N[C@@H](Cc1ccc(O)cc1)C(=O)N[C@H](CCCCN)C(=O)N[C@@H](CC(C)C)C(=O)N[C@@H](CCCNC(=N)N)C(=O)N1CCC[C@H]1C(=O)NCC(N)=O) [SEQ ID NO: 16] | – | – | – | 16 | 3.5e-05 | – | –
6 | Palm-Pro-Gly-D-Phe-Pro-Ser-Tyr-D-Lys(H-Pro-Lys-Lys-Lys-Arg-Lys-Val)-Leu-Arg-Pro-Gly-NH2 [SEQ ID NO: 32] | – | – | – | 50 | 1e-05 | 1e-05 | –
